The record followed here is patent US9597347B2, “Compositions for treating obesity and insulin resistance disorders” (President and Fellows of Harvard College, priority 2003, dated 2017).

Experiment [1] relates to Wild-type N2 C. elegans worms. Briefly: Nile Red staining of fat accumulation in wild-type N2 C. elegans. The format is in vivo. Particulars: overnight. On the procedure:
Wild-type N2 C. elegans worms were grown on OP50 bacteria and exposed overnight to vehicle (0.1% ethanol) alone or with 10, 50 or 100 μM of resveratrol (in ethanol). Fat accumulation was visualized with Nile Red staining, as described further below and in Ashrafi K, et al. Nature 421:268-27 (2003).
(§1) Synchronized starved L1 worms were grown in the presence of Nile Red. Strains were grown on NGM plates at 25° C. for approximately 48 hours until the young adult stage was reached. 20-30 young adult worms were then washed 2× with M9 buffer and transferred to new NGM/Nile red experimental plates that contained either OP50 or HTT5 E. coli carrying the L4440 RNAi control vector. For experiments comparing the effect of nicotinamide and resveratrol on fat mobilization, OP50 plates were coated with vehicle alone or Nicotinamide (in PBS), or vehicle alone and Resveratrol (in Ethanol or DMSO).
Resveratrol (Indofine #024964) was dissolved in Ethanol or DMSO to a 10 mM stock solution. Resveratrol was added to 60 mm NGM agar dishes containing either OP50 or RNAi expressing bacteria (HT115) to a final concentration of 10 μm, 50 μm, and 100 μM. Nile Red was also added to plates to a final concentration of 0.05 μg/ml. Nicotinamide (Supelco #47865-U) was diluted in PBS including Nile Red and added to […] dishes containing OP50 to a final concentration of 1 mM, 10 mM, or 100 mM.
Nile Red: Nile Red Powder (Sigma #N-3013) was dissolved in acetone at 500 μg/ml, diluted in 1× Phosphate Buffered Saline (PBS) including appropriate drug and applied to surface of Nematode Growth Media (NGM) plates previously seeded with OP50 or RNAi bacteria, at a final concentration of 0.05 μg/ml. Fat content was monitored and recorded by fluorescence microscopy.
Nile Red Staining was visualized by using a Nikon TE2000S microscope equipped with a CY3 filter (emission 535-685 nm). Images were captured using a SPOT RT monochrome digital camera attached to the Nikon Microscope with SPOT RT software v3.5. All Nile red images were acquired using identical settings and exposure times and then changed to red palette.

Experiment [2] deals with DAF-16 mutant worms (mgDf47). Nature of the experiment: Nile Red staining of fat accumulation in DAF-16 mutant worms (mgDf47). Format: in vivo, C. elegans. Particulars: defective in insulin-signaling. On the procedure:
Sir2.1, which is activated by resveratrol, acts via the transcription factor DAF-16 to prolong lifespan in […] (Tissenbaum and Guarente (2001) Nature 410:227).
C. elegans strains were maintained as described at 25° C., except when noted (Brenner (1974) Genetics 77:71). The wild type reference strain was N2 Bristol; the mutant strains were: sir-2.1(ok434), T01C8.1(ok524), and daf-16 (mgDf47). Daf-16 (mgDf47) was obtained from the Ruvkun laboratory, MGH; all other strains were obtained from the Caenorhabditis Genetics Center (from C. Elegans Gene Knockout Consortium).
as §1

The test system of another experiment is C. elegans worms. Nature of the experiment: Nile Red fat staining in C. elegans fed RNAi bacteria. Format: in vivo. On the procedure:
The role of Sir2.1 in fat metabolism was shown in C. elegans worms in which Sir2.1 was RNA inactivated. Young adult worms were grown to adulthood in the presence of bacteria that carry RNAi vector alone or vector encoding Sir2.1 RNAi (R11A8.4), as described below. These worms were grown in the presence or absence of resveratrol, and stained with Nile-Red as described below.
We have examined the C. elegans database and found two gene products that are highly related to mammalian AMPK, TOC1.8 and Par2.3; five genes encoding homologs of CPT-1 and one gene encoding a homolog of COT. C. elegans worms were incubated with bacteria carrying RNAi vector alone, or interfering RNA against TOC1.8 or F41E7.3, a C. elegans homologue of COT in the presence or absence of AICAR. Fat accumulation was visualized with Nile-Red, as described below. […] Thus, AICAR/AMPK signaling to fatty acid oxidation is conserved in worms and mammalian cells.
The effect of TOC1.8 and COT inactivation was then investigated in C. elegans incubated with resveratrol. C. elegans worms were incubated with bacteria carrying RNAi vector alone, or a vector encoding TOC1.8 or COT interfering RNA in the presence or absence of resveratrol. Fat accumulation was visualized with Nile-Red, as described below.
RNAi plates were seeded with HTT5 E. coli carrying either the L4440 RNAi vector control or the specific RNAi clones T01C8.1, AMPK; R11A8.4, sir-2.1; or F41E7.6 COT in the presence or absence of 100 μM resveratrol. Young adults were transferred to plates containing the appropriate vector, Nile Red stain and drug then maintained at 25° C. Nile Red staining was assessed 24 hours after resveratrol treatment by UV microscopy.
HT115 E. Coli carrying the RNAi vector, L4440, were used for maintenance feeding. Bacteria containing experimental RNAi clones were cultured in 10 ml Luria Broth media containing 50 μg/ml ampicillin for 18 hours. 350 μl of each culture was spotted to a 60 mm dish containing NGM agar, 6 mM IPTG and 25 μg/ml carbenicillin. After overnight incubation (at room temp), Nile Red was added on top of each dish to a final concentration of 0.05 μg/ml along with the experimental compounds indicated in the figure legends. Nile Red staining was assessed after 24 hrs by UV microscopy. For each batch of RNAi clones tested, L4440 (vector alone) was included. […] All phenotypes were confirmed by at least three additional rounds of testing.

Another experiment relates to phosphorylation of ACC. Briefly: Western blot of ACC phosphorylation in HEP3B human hepatoma cells. The format is cell-based. Particulars: resveratrol-treated cells with SIRT1 overexpressed or knocked down. On the procedure:
Similar results were also observed for HEP3B human hepatoma cells. In this case phosphorylation of ACC was measured in cells were SIRT1 was overexpressed (see FIG. 9, 4 right lanes) and in cells were SIRT1 was knocked down (FIG. 9, left lane). […] Tubulin served as a loading control.
A general note: In western blotting, separated proteins are transferred to a membrane and probed.

For another experiment, the system named is PPAR-γ. Nature of the experiment: Expression of the adipogenic transcription regulator PPAR-γ in 3T3 cells. The format is cell-based. Particulars: cells exposed to resveratrol during differentiation. An excerpt:
AICAR stimulates AMPK signaling and inhibits adipogenesis in 3T3 cells. To distinguish whether the effect of resveratrol was to inhibit differentiation or mobilize fat from 3T3 cells, we examined whether resveratrol inhibited the expression of adipogenic transcription regulators such as PPAR-γ.

Experiment [3] concerns Wild-type N2 C. elegans worms. Nature of the experiment: Nile Red staining of fat accumulation in wild-type N2 C. elegans. Format: in vivo. The settings on record: 100 μM, L1 animals, 48 hours, control 2.5% v/v DMSO.

“Also recorded” adds a separate entry of the source.

As for `Oc1ccc(/C=C/c2cc(O)cc(O)c2)cc1` [resveratrol, 3,5,4′-Trihydroxy-trans-stilbene], the fat accumulation entry in experiment [1] (10 μM or 50 μM) is listed as “marked decrease in fat accumulation”. Further, the “reduction of fat accumulation” value in experiment [1] (100 μM) is 90%. Also, in experiment [2], the “fat mobilization and fat accumulation” value was “stimulates fat mobilization and a decrease in fat accumulation”. In addition, the fat mobilization entry with C. elegans worms (RNA inactivation of DAF-16, or inactivation of DAF-16 by mutation) is “had no effect on resveratrol-stimulated fat mobilization”; with C. elegans worms (RNA inactivation of TOC1.8 (AMPK homolog) or F41E7.3 (COT homolog)), “blocks resveratrol-stimulated fat mobilization”; with C. elegans worms (Sir2.1 RNAi (R11A8.4)), “did not show resveratrol induced fat mobilization”. Further, the “reduction of fat content” value in the experiment on C. elegans worms (RNAi vector alone, 100 μM resveratrol, Nile Red assessed after 24 hours) worked out at 75%. In the experiment on phosphorylation of ACC, the “phosphorylation of ACC” value is reported as “Phosphorylation of ACC was not affected”. Further, the “PPAR-γ RNA / expression” value with PPAR-γ is listed as “did not show an increase in PPAR-γ RNA; also recorded: marked decrease in PPARγ expression”. Further, in experiment [3], the fat staining entry is given as “Significant reduction of fat staining”.
